Test results taken from ChEMBL document CHEMBL4376877, “Stepwise Evolution of Fragment Hits against MAPK Interacting Kinases 1 and 2” (J Med Chem, 2020).
In brackets after ≈: the same amount, converted by molar mass.

Assays:
[1] = Permeability across basolateral side to apical side of membrane in human Caco2 cells; format: ADME, cell-based; conditions: Caco-2, read-out: permeability
[2] = Permeability across apical side to basolateral side of membrane in human Caco2 cells; format: ADME, cell-based; conditions: Caco-2, read-out: permeability
[3] = Clearance in mouse liver microsomes; format: ADME, Microsome; conditions: read-out: CLH
[4] = Clearance in human liver microsomes; format: ADME, Microsome; conditions: read-out: CLH
[5] = Thermodynamic solubility of compound at pH 7.4; format: physicochemical; conditions: buffer, read-out: Therm_solubility
[6] = Initial plasma concentration in mouse at 1 mg/kg, iv; format: ADME, organism-based
[7] = AUC (0 to 8 hrs) in mouse at 5 mg/kg, po measured up to 8 hrs; format: ADME, organism-based; design: dose 5 mg/kg, time < 8 hr, route oral; conditions: in vivo
[8] = Apparent volume of distribution in mouse at 1 mg/kg, iv; format: ADME, organism-based; conditions: in vivo, read-out: Vz
[9] = Terminal elimination half-life in mouse at 5 mg/kg, po; format: ADME, organism-based; conditions: in vivo, read-out: beta t1/2 (converted)
[10] = AUC (0 to infinity) in mouse at 5 mg/kg, po; format: ADME, organism-based; design: dose 5 mg/kg, route oral, time infinity; conditions: in vivo
[11] = Cmax in mouse at 5 mg/kg, po measured after 10 mins; format: ADME, organism-based; design: dose 5 mg/kg, route oral; conditions: in vivo
[12] = Oral bioavailability in mouse at 5 mg/kg; format: ADME, organism-based; conditions: in vivo
[13] = Tmax in mouse at 5 mg/kg, po; format: ADME, organism-based; conditions: in vivo
[14] = AUC (0 to 8 hrs) in mouse at 1 mg/kg, iv measured up to 8 hrs; format: ADME, organism-based; design: time < 8 hr, dose 1 mg/kg, route intravenous; conditions: in vivo
[15] = Clearance in mouse at 1 mg/kg, iv; format: ADME, organism-based; conditions: in vivo
[16] = Terminal elimination half life in mouse at 1 mg/kg, iv; format: ADME, organism-based; conditions: in vivo, read-out: beta t1/2 (converted)
[17] = Apparent volume of distribution in mouse at 5 mg/kg, po; format: ADME, organism-based; conditions: in vivo
[18] = Clearance in mouse at 5 mg/kg, po; format: ADME, organism-based; conditions: in vivo
[19] = AUC (0 to infinity) in mouse at 1 mg/kg, iv; format: ADME, organism-based; design: dose 1 mg/kg, time infinity, route intravenous; conditions: in vivo
[20] = Cmax in mouse at 5 mg/kg, po measured after 0.5 hrs; format: ADME, organism-based; design: dose 5 mg/kg, route oral; conditions: in vivo

Compound	Papp B→A [1]	Papp A→B [2]	microsomal CLint [3]	microsomal CLint [4]	solubility thermodynamic [5]	C0 [6]	AUC(0-t) at 8 h [7]	Vd [8]	half-life [9]	AUC(0-inf) [10]	Cmax [11]	bioavailability [12]	Tmax [13]	AUC(0-t) at 8 h [14]	clearance [15]	half-life [16]	Vz [17]	CL/F [18]	AUC(0-inf) [19]	Cmax [20]
CC(C)Oc1cc(-c2cccnc2)ccc1C(N)=O	20 ×10⁻⁶ cm/s	32 ×10⁻⁶ cm/s	9.4 µL/min/mg	5.8 µL/min/mg	45 µg/mL (≈ 176 µM)	678 ng/mL	488 ng·h/mL	30 L/kg	1.6 h	494 ng·h/mL	615 ng/mL	61%	0.17 h	160 ng·h/mL	100 mL/min/kg	3.4 h	23 L/kg	168 mL/min/kg	166 ng·h/mL	–
CC(C)Oc1cc(-c2cncc(-c3cnn(C4COC4)c3)c2)ccc1C(N)=O	25 ×10⁻⁶ cm/s	10 ×10⁻⁶ cm/s	3.1 µL/min/mg	< 10 µL/min/mg	28 µg/mL (≈ 74 µM)	–	2080 ng·h/mL	5.5 L/kg	2.8 h	2360 ng·h/mL	–	73%	0.5 h	568 ng·h/mL	28.3 mL/min/kg	2.2 h	8.7 L/kg	35 mL/min/kg	579 ng·h/mL	658 ng/mL

The next lines start with the values.

Papp B→A [1]	Papp A→B [2]	microsomal CLint [3]	microsomal CLint [4]	solubility thermodynamic [5]	C0 [6]	AUC(0-t) at 8 h [7]	Vd [8]	half-life [9]	AUC(0-inf) [10]	Cmax [11]	bioavailability [12]	Tmax [13]	AUC(0-t) at 8 h [14]	clearance [15]	half-life [16]	Vz [17]	CL/F [18]	AUC(0-inf) [19]	Cmax [20]	Compound
21 ×10⁻⁶ cm/s	27 ×10⁻⁶ cm/s	25.1 µL/min/mg	7.9 µL/min/mg	7.3 µg/mL (≈ 20.8 µM)	–	–	–	–	–	–	–	–	–	–	–	–	–	–	–	Cc1c(-c2cncc(-c3ccc(C(N)=O)c(OC(C)C)c3)c2)cnn1C
41 ×10⁻⁶ cm/s	6.2 ×10⁻⁶ cm/s	62 µL/min/mg	–	10 µg/mL (≈ 28.5 µM)	–	–	–	–	–	–	–	–	–	–	–	–	–	–	–	Cc1n[nH]c(C)c1-c1cncc(-c2ccc(C(N)=O)c(OC(C)C)c2)c1
33 ×10⁻⁶ cm/s	8.3 ×10⁻⁶ cm/s	251 µL/min/mg	18 µL/min/mg	11 µg/mL (≈ 32.7 µM)	–	–	–	–	–	–	–	–	–	–	–	–	–	–	–	Cc1[nH]ncc1-c1cncc(-c2ccc(C(N)=O)c(OC(C)C)c2)c1
